# Results reported in US20060270631A1, “Methods for the treatment and prevention of angiogenic diseases” (priority 2005, published 2006).
# Legend:
# [1] = system: human RECs; assay: Matrigel microvessel (tube) formation by human RECs; format: cell-based; details: control and VEGF-treated (50 ng/mL) cultures, 18 hours
# Experimental: Since VEGF-mediated angiogenesis and vascular leakage are critical processes in the pathology of diabetic retinopathy, we evaluated the effects of Compound II on the VEGF-induced formation of microvessels by human RECs. The basement membrane-like substrate, Matrigel (Becton-Dickinson, Franklin Lakes, N.J.), was used to induce vessel-like tube formation from human RECs as in previous studies with other cell types (Lee et al., Cancer Lett 208: 89 (2004)). Briefly, 300 μL of Matrigel was pipetted into 24 well plates and allowed to gel at 37° C. for 30 minutes. Human RECs were briefly trypsinized and plated onto the layer of Matrigel at an approximate density of 25,000 cells/cm^2. VEGF (50 ng/mL in PBS) with either DMSO or an SK inhibitor was added to the media immediately. After 18 hours at 37° C., images were digitally captured with a Retiga Ex camera with bright-field microscopy using a Nikon Eclipse TE300 microscope.
# [2] = system: endogenous SK; assay: Cellular SK activity in bovine retinal endothelial cells; format: cell-based; details: 25 μg/mL (approximately 80 μM), 4 hours
# Experimental: FIG. 3. Inhibition of cellular SK activity in RECs. Bovine retinal endothelial cells were incubated with 20 μM dimethylsphingosine (DMS) or 25 μg/mL Compound I, Compound II or Compound V (approximately 80 μM for each compound) for 4 hours before the addition of 0.4 μCi of [^3H]sphingosine. After 15 minutes, cells were lysed and extracted with chloroform: methanol. The total amounts of [^3H]sphingosine in the organic phase and [^3H]S1P in the aqueous phase were then determined. Values represent the mean±SD of duplicate samples in a typical experiment.
# (§1) Cellular S1P formation assay. Cells were grown to confluency in 24-well tissue culture plates and serum-starved for 24 hours as described above. Cells were then treated with 1% DMSO (as the drug vehicle), 20 μM dimethylsphingosine, or the indicated concentration of an SK inhibitor for 4 hours. The cells were then incubated with [^3H]sphingosine for 15 minutes, and the formation of [^3H]S1P was measured as previously described (French et al., Cancer Res 63: 5962 (2003)). In some assays, the cells were serum-starved for 24 hours and then treated with VEGF (50 ng/mL) alone or in the presence of an SK inhibitor for an additional 12 hours. [^3 H]Sphingosine was then added for 15 minutes, and its conversion to [^3H]S1P was measured as indicated above.
# A cell-based assay in which the phosphorylation of exogenously added [^3H]sphingosine to [^3H]S1P by endogenous SK can be quantified (French et al., Cancer Res 63: 5962 (2003)) was used to evaluate the effects of test compounds on the activity of SK in intact cells. In this assay, cells are incubated with [^3 H]sphingosine for an appropriate period of time, and then [^3H]sphingosine and [^3H]S1P (formed by endogenous SK activity) are separated by extraction and levels of both species are determined by scintillation counting. We have used a number of cell lines in this assay to confirm that the SK inhibitors are active in multiple intact cell systems. For example, human umbilical vein endothelial cells (HUVECs) are commonly used as a model of human vasculature. […] Similarly, the enzymatic activity of SK in bovine RECs, and its sensitivity to SK inhibitors were assessed. […] Each of inhibitors of SK (Compound I, Compound II and Compound V) was also active against the endogenous SK activity in the bovine RECs.
# [3] = system: human RECs; assay: Cytotoxicity assay (sulforhodamine) toward human RECs; format: cell-based; details: 12 or 14 hours, serum-starved human RECs
# Experimental: FIG. 4. Toxicity of Compound II toward HRECs. Human RECs were serum-starved for 24 hours and then left untreated for 12 hours (▪) or incubated with 50 ng/mL VEGF (▴) for 14 hours in the presence of the indicated concentration of Compound II. These protocols were chosen to exactly match conditions in SK activity and proliferation experiments described below. After incubation, the percentages of cells that survived the treatment were determined. Values represent the mean i SD cell survival in triplicate samples in a typical experiment.
# Cytotoxicity assays. Cells were grown to confluence in 96-well tissue culture plates and serum-starved for 24 hours as described above. Cells were then treated with varying concentrations of Compound II for 12 hours (to parallel the SK activity assays described above) or with varying concentrations of Compound II and 50 ng/mL of VEGF for 14 hours (to parallel the proliferation assays described below). Cell survival was determined using the sulforhodamine assay (Skehan et al., J Natl Cancer Inst 82: 1107 (1990)).
# Since Compound II was the most efficacious inhibitor of SK in the RECs, this compound was used to characterize the biological effects of inhibiting SK in these cells. It was first necessary to determine the toxic effects of this compound toward cultures of RECs under conditions identical to subsequent signal studies. […]
# [4] = system: VEGF-induced vascular permeability; assay: VEGF-induced vascular leakage (Miles assay) in nude mice; format: in vivo, mouse; details: 100 mg/kg intraperitoneal, FIG. 7A
# [5] = system: endogenous SK; assay: Cellular S1P formation assay in human chondrocytes (HC); format: cell-based; details: HCs; read-out: drug concentration that decreases S1P formation by 50%
# Experimental: as §1
# A cell-based assay in which the phosphorylation of exogenously added [^3H]sphingosine to [^3H]S1P by endogenous SK can be quantified (French et al., Cancer Res 63: 5962 (2003)) was used to evaluate the effects of test compounds on the activity of SK in intact cells. In this assay, cells are incubated with [^3 H]sphingosine for an appropriate period of time, and then [^3H]sphingosine and [^3H]S1P (formed by endogenous SK activity) are separated by extraction and levels of both species are determined by scintillation counting. […] Similarly, the enzymatic activity of SK in bovine RECs, and its sensitivity to SK inhibitors were assessed. […]
smiles,measurement,setting,value
Oc1ccc(Nc2nc(-c3ccc(Cl)cc3)cs2)cc1 [Compound II],formation of networks and tubes,[1],marked reduction
same,endogenous SK activity in bovine RECs,[2],active
same,cell kill,[3]; concentrations up to approximately 16 μM,< 10%
same,cell kill,[3]; concentrations up to at least 65 μM,less than 25%
same,inhibition of the in vivo vascular leakage response to VEGF,[4],more than 80%
same,IC50,[5],360 nM
